{
  "source": "patent US20250042916A1",
  "about": "(ACONCAGUA BIO, INC., priority 2023, published 2025)",
  "format_in_all_cases": "cell-based",
  "key": {"[1]": {"target": "human calcitonin receptor (CTR) and RAMP3 (AMY3) in COS-7 cells (Homo sapiens, UniProt O60896+P30988)", "sequence (O60896 24-148, one chain of several)": "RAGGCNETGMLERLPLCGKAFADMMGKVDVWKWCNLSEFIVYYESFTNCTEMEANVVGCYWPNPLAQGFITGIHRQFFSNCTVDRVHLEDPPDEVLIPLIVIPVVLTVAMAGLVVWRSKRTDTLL", "assay": "Amylin Receptor cAMP Assay I", "conditions": "values marked *: Amylin Receptor cAMP Assay I; COS-7/AMY3 cells; read-out: Amylin Receptor cAMP Stimulation Activity: EC50", "outline": "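COS-7 cells stably co-expressing human CTR and RAMP3 (AMY3) were stimulated with serially diluted compounds (4-fold) in DPBS with 0.5 mM IBMX and 0.1% BSA for 30 min at 37 °C, 1000 cells/well. cAMP accumulation was measured by HTRF (cAMP-d2/anti-cAMP cryptate, 1 h RT) read at 665/615 nm.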"}, "[2]": {"target": "T1, human calcitonin receptor (CTR) in COS-7 cells (Homo sapiens, UniProt P30988)", "T1 construct": "expressed in transfected cells; host or cells: COS-7 (COS7-human CTR Clone #2)", "T1 sequence (P30988 25-474)": "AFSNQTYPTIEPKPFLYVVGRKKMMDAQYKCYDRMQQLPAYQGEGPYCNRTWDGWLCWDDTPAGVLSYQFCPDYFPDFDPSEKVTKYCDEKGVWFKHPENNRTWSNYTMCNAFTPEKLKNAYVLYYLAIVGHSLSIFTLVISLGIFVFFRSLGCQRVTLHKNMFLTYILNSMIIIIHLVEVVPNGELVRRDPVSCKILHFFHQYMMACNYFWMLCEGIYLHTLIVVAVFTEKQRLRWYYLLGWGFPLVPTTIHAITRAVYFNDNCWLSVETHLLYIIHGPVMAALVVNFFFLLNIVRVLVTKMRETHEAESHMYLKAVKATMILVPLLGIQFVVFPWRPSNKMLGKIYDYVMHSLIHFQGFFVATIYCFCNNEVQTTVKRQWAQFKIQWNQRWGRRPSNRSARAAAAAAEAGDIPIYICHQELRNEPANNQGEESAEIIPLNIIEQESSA", "assay": "Calcitonin Receptor (CTR) cAMP Assay", "conditions": "COS7-human CTR Clone #2 cells; read-out: Calcitonin Receptor cAMP Stimulation Activity: EC50", "excerpt": "Calcitonin Receptor (CTR) cAMP Assay\nThe calcitonin receptor (CTR) belongs to the subfamily of GPCRs known as the secretin or ‘B’ family of GPCRs. Like other class B1 GPCRs, the CT receptor family is canonically coupled to Gs-mediated cAMP production, and measurement of cAMP accumulation has been the primary assay used to determine peptide selectivity and potency.\n(§1) To optimize functional activity directed toward Gas coupling, COS-7 cells were stably transfected with human calcitonin receptor (CTR) to create COS7-human CTR Clone #2 stable cell line. 100× concentration of compound working solutions were prepared with 4-fold serial dilution in 384-well Echo LDV plate (Labcyte, Cat #LP-0200-BC). 200 nL/well 100× concentration of compound working solutions were moved to 384-well white microplate (Perkin Elmer, Cat #6007680) using Labcyte ECHO550. 1×10^5 cells/mL COS7-human CTR Clone #2 cell suspensions prepared with assay buffer [HBSS containing 20 mM HEPES (Gibco, Cat #15630-080), 0.5 mM IBMX (Sigma, Cat #15879) and 0.1% Casein (Sigma, Cat #C4765)], 20 μL cell suspensions were added to each well of previous generated assay plate which already contains 200 nL compound at 100× concentration using ThermoFisher Multidrop Combi (2000 cells/well). Seal the plate and incubate at 37° C. with 5% CO2 for 30 min.\n(§2) After incubation, the cAMP assay signal was generated using cAMP dynamic 2 kit (Revvity, Cat #62AM4PEC). 10 μL cAMP-d2 working solution was added to each well, followed by 10 L Anti-cAMP antibody-cryptate working solution which was added to each well using CERTUS FLEX LIQUID DISPENSER. The samples were then incubated at room temperature for 1 hour protected from light. the fluorescence was read at 665 and 615 nm with Reader PerkinElmer EnVision 2105."}, "Amylin Receptor": {"target": "Amylin Receptor (Homo sapiens, UniProt O60896+P30988)", "sequence (O60896 24-148, one chain of several)": "as the sequence (O60896 24-148, one chain of several) above", "assay": "Amylin Receptor cAMP stimulation, assay version (I or II) not marked", "conditions": "values without footnote mark; assay I or II not stated", "method": "To optimize functional activity directed toward Gas coupling, COS-7 cells were stably transfected with human calcitonin receptor (CTR) and RAMP3, simultaneously. 100× concentration of compound working solutions were prepared (Agilent Technologies Bravo) with 4-fold serial dilution in 384-well Echo LDV plate (Labcyte, Cat #LP-0200). 100 nL/well 100× concentration of compound working solutions were moved to 384-well white low volume plate (Greiner, Cat #784075) using Labcyte ECHO550. 1×10^5 cells/mL COS-7/CTR or COS-7/AMY3 (HD Biosciences) cell suspensions prepared with assay buffer [DPBS containing 0.5 mM IBMX (Sigma, Cat #15879) and 0.1% BSA (GENVIEW, Cat #FA016-100 g)], 10 μL cell suspensions were added to each well of previous generated assay plate which already contains 100 nL compound at 100× concentration using ThermoFisher Multidrop Combi (1000 cells/well). Seal the plate and incubate at 37° C. with 5% CO2 for 30 min.\nas §2, with “Hi-range Kit (Cisbio). 5” for “dynamic 2 kit (Revvity, Cat #62AM4PEC). 10”, “5 μL” for “10 L”, “ThermoFisher Multidrop Combi.” for “CERTUS FLEX LIQUID DISPENSER.”, “EnVision.” for “EnVision 2105.”\nas §1, with “and RAMP3, simultaneously.” for “to create COS7-human CTR Clone #2 stable cell line.”, “COS-7/AMY3” for “COS7-human CTR Clone #2”\nas §2, with “10 μL” for “10 L”"}},
  "data": [
    {"compound": "Cc1nnc(-c2c(CCc3ccc(F)cc3)nc(CC(C)C)c(C(N)=O)c2-c2ccc(C(=O)NCc3ccc(F)c(F)c3)s2)o1", "note": "[Compound 107, N-(3,4-difluorophenyl)methyl-5-{5-carbamoyl-2-[2-(p-fluorophenyl)ethyl]-6-isobutyl-3-(5-methyl-1,3,4-oxadiazol-2-yl)-4-pyridyl}-2-thenamide]", "values": [
      {"measurement": "EC50", "setting": "[1]", "value": 6.6, "unit": "nM"},
      {"measurement": "EC50", "setting": "[2]", "value": 1.6, "unit": "nM"}
    ]},
    {"compound": "COc1cccc2c1CC[C@H]2NC(=O)c1ccc(-c2c(C(N)=O)c(CC(C)C)nc(CCc3ccc(F)cc3)c2-c2nnc(C)o2)s1", "note": "[Compound 122, (R)-6-(4-fluorophenethyl)-2-isobutyl-4-(5-((4-methoxy-2,3-dihydro-1H-inden-1-yl)carbamoyl)thiophen-2-yl)-5-(5-methyl-1,3,4-oxadiazol-2-yl)nicotinamide]", "values": [
      {"measurement": "EC50", "setting": "[1]", "value": 0.8, "unit": "nM"},
      {"measurement": "EC50", "setting": "[2]", "value": 0.73, "unit": "nM"}
    ]},
    {"compound": "Cc1nnc(-c2c(CCc3ccc(F)cc3)nc(CC(C)C)c(C(N)=O)c2-c2cc3ccnc(NCc4ccc(F)c(F)c4)c3s2)o1", "note": "[Compound 131, 4-(7-{[(3,4-difluorophenyl)methyl]amino}-1-thia-6-aza-2-indenyl)-6-[2-(p-fluorophenyl)ethyl]-2-isobutyl-5-(5-methyl-1,3,4-oxadiazol-2-yl)nicotinamide]", "values": [
      {"measurement": "EC50", "setting": "[1]", "value": 4.4, "unit": "nM"},
      {"measurement": "EC50", "setting": "[2]", "value": 0.33, "unit": "nM"}
    ]},
    {"compound": "COC1CCCN(c2nccc3cc(-c4c(C(N)=O)c(CC(C)C)nc(CCc5ccc(F)cc5)c4-c4nnc(C)o4)sc23)C1", "note": "(stereo not drawn) [Compound 135, 6-(4-fluorophenethyl)-2-isobutyl-4-(7-(3-methoxypiperidin-1-yl)thieno[2,3-c]pyridin-2-yl)-5-(5-methyl-1,3,4-oxadiazol-2-yl)nicotinamide]", "values": [
      {"measurement": "EC50", "setting": "[1]", "value": "> 1000", "unit": "nM"},
      {"measurement": "EC50", "setting": "[2]", "value": 280, "unit": "nM"}
    ]},
    {"compound": "Cc1nnc(-c2c(CCc3ccc(F)cc3)nc(CC(C)C)c(C(N)=O)c2-c2ccc3c(c2)CCC3OCc2ccc(F)c(F)c2)o1", "note": "(stereo not drawn) [Compound 142, 4-{1-[(3,4-difluorophenyl)methoxy]-5-indanyl}-6-[2-(p-fluorophenyl)ethyl]-2-isobutyl-5-(5-methyl-1,3,4-oxadiazol-2-yl)nicotinamide]", "values": [
      {"measurement": "EC50", "setting": "[1]", "value": 94, "unit": "nM"},
      {"measurement": "EC50", "setting": "[2]", "value": 8.8, "unit": "nM"}
    ]},
    {"compound": "Cc1nnc(-c2c(CCc3ccc(F)cc3)nc(CC(C)C)c(C(N)=O)c2-c2ccc3c(ccn3CCc3ccc(F)c(F)c3)c2)o1", "note": "[Compound 144, 4-(1-(3,4-difluorophenethyl)-1H-indol-5-yl)-6-(4-fluorophenethyl)-2-isobutyl-5-(5-methyl-1,3,4-oxadiazol-2-yl)nicotinamide]", "values": [
      {"measurement": "EC50", "setting": "[1]", "value": 51.4, "unit": "nM"},
      {"measurement": "EC50", "setting": "[2]", "value": 6.9, "unit": "nM"}
    ]},
    {"compound": "Cc1nnc(-c2c(CCc3ccc(F)cc3)nc(CC(C)C)c(C(N)=O)c2-c2ccc3c(c2)CCCN3CCc2ccc(F)c(F)c2)o1", "note": "[Compound 174, 4-(1-(3,4-difluorophenethyl)-1,2,3,4-tetrahydroquinolin-6-yl)-6-(4-fluorophenethyl)-2-isobutyl-5-(5-methyl-1,3,4-oxadiazol-2-yl)nicotinamide]", "values": [
      {"measurement": "EC50", "setting": "[1]", "value": 107, "unit": "nM"},
      {"measurement": "EC50", "setting": "[2]", "value": 5.7, "unit": "nM"}
    ]},
    {"compound": "CCc1nc(CC(C)C)c(C(N)=O)c(-c2cc3ccnc(N[C@@H]4CCc5cc(F)ccc54)c3s2)c1-c1nnc(C)o1", "note": "[Compound 188, (R)-6-ethyl-4-(7-((5-fluoro-2,3-dihydro-1H-inden-1-yl)amino)thieno[2,3-c]pyridin-2-yl)-2-isobutyl-5-(5-methyl-1,3,4-oxadiazol-2-yl)nicotinamide]", "values": [
      {"measurement": "EC50", "setting": "[1]", "value": 36.6, "unit": "nM"},
      {"measurement": "EC50", "setting": "[2]", "value": 8.1, "unit": "nM"}
    ]},
    {"compound": "Cc1nnc(-c2c(C34CC(C(F)F)(C3)C4)nc(CC(C)C)c(C(N)=O)c2-c2ccc(C(=O)NCc3ccc(F)c(F)c3)s2)o1", "note": "[Compound 190, 4-(5-((3,4-difluorobenzyl)carbamoyl)thiophen-2-yl)-6-(3-(difluoromethyl)bicyclo[1.1.1]pentan-1-yl)-2-isobutyl-5-(5-methyl-1,3,4-oxadiazol-2-yl)nicotinamide]", "values": [
      {"measurement": "EC50", "setting": "[1]", "value": 4060, "unit": "nM"},
      {"measurement": "EC50", "setting": "[2]", "value": 738, "unit": "nM"}
    ]},
    {"compound": "Cc1nnc(-c2c(CC34CC(C(F)F)(C3)C4)nc(CC(C)C)c(C(N)=O)c2-c2ccc(C(=O)NCc3ccc(F)c(F)c3)s2)o1", "note": "[Compound 203, 4-(5-((3,4-difluorobenzyl)carbamoyl)thiophen-2-yl)-6-((3-(difluoromethyl)bicyclo[1.1.1]pentan-1-yl)methyl)-2-isobutyl-5-(5-methyl-1,3,4-oxadiazol-2-yl)nicotinamide]", "values": [
      {"measurement": "EC50", "setting": "[1]", "value": 939, "unit": "nM"},
      {"measurement": "EC50", "setting": "[2]", "value": 65, "unit": "nM"}
    ]},
    {"compound": "Cc1nnc(-c2c(CCc3ccc(F)cc3)nc(CC(C)C)c(C(N)=O)c2-c2cc3ccnc(NCc4cncc(F)c4)c3s2)o1", "note": "[Compound 206, 6-[2-(p-fluorophenyl)ethyl]-4-(7-{[(5-fluoro-3-pyridyl)methyl]amino}-1-thia-6-aza-2-indenyl)-2-isobutyl-5-(5-methyl-1,3,4-oxadiazol-2-yl)nicotinamide]", "values": [
      {"measurement": "EC50", "setting": "Amylin Receptor", "value": 41.5, "unit": "nM"}
    ]},
    {"compound": "Cc1cnc(-c2c(CCC3CCOCC3)nc(CC(C)C)c(C(N)=O)c2-c2cc3ccnc(N[C@@H]4CCc5ncccc54)c3s2)o1", "note": "[Compound 207, 4-{7-[(R)-4-aza-1-indanylamino]-1-thia-6-aza-2-indenyl}-2-isobutyl-5-(5-methyl-1,3-oxazol-2-yl)-6-[2-(tetrahydro-2H-pyran-4-yl)ethyl]nicotinamide]", "values": [
      {"measurement": "EC50", "setting": "Amylin Receptor", "value": 64.3, "unit": "nM"}
    ]},
    {"compound": "CCc1nc(CC(C)C)c(C(N)=O)c(-c2cc3ccnc(N[C@@H]4CCc5ccc(F)cc54)c3s2)c1-c1nnc(C)o1", "note": "[Compound 209, 4-{7-[(R)-6-fluoro-1-indanylamino]-1-thia-6-aza-2-indenyl}-6-ethyl-2-isobutyl-5-(5-methyl-1,3,4-oxadiazol-2-yl)nicotinamide]", "values": [
      {"measurement": "EC50", "setting": "Amylin Receptor", "value": 96.9, "unit": "nM"}
    ]},
    {"compound": "Cc1nnc(-c2c(COc3ccc(F)cc3)nc(CC(C)C)c(C(N)=O)c2-c2ccc(C(=O)N[C@@H]3CCc4ccccc43)s2)o1", "note": "[Compound 210, N—[(R)-1-indanyl]-5-{3-carbamoyl-6-[(p-fluorophenoxy)methyl]-2-isobutyl-5-(5-methyl-1,3,4-oxadiazol-2-yl)-4-pyridyl}-2-thenamide]", "values": [
      {"measurement": "EC50", "setting": "Amylin Receptor", "value": 546, "unit": "nM"}
    ]}
  ]
}
